From PubChem BioAssay AID743163 (Broad Institute, 2013)
Calls of active or inactive are those of the source. How the calls were made is not given here.

Test system: Mycobacterium tuberculosis starved, CFU count by imaging
Assay: Mycobacterium tuberculosis starved, CFU count by imaging at 64 µM (AID 743163)
Settings: stronger effect = lower value

Row | Compound | CFU (CFU at 64 uM, at 64 µM) | CFU (at 10 µM)
1 | CCC(C)n1nnc2c(=O)oc3ccccc3c21 (stereo not drawn) | 3.22e+06 CFU | 4.71e+06 CFU
2 | Cn1c(NC(=O)c2ccccc2)nc2ccccc21 | 0 CFU | 0 CFU
3 | CCOC(=O)c1cc(COc2c(Cl)cccc2Cl)on1 | 1.11e+06 CFU | 3.08e+07 CFU
4 | COc1ccc(CNC(=O)Nc2ncc([N+](=O)[O-])s2)cc1 | 204000 CFU | 2.15e+06 CFU
5 | COc1ccc(CCNc2cc(-c3ccccc3)nc3ncnn23)cc1 | 2.5e+06 CFU | 2.65e+06 CFU
6 | COC(=O)C(C)Oc1ccc2cc(-c3ccccc3)c(=O)oc2c1 (stereo not drawn) | 4.57e+06 CFU | 3.2e+07 CFU (inactive)
7 | CCOc1ccc(OC(=O)c2ccc3c(=O)n4c(nc3c2)CCC4)cc1 | 3.25e+07 CFU | 3.2e+07 CFU (inactive)
8 | c1ccc(-c2n[nH]c(-c3ccccn3)n2)nc1 | 1.91e+06 CFU | 6.09e+06 CFU
9 | CSc1nsc(SCc2ccc(C(=O)Nc3cccc(C)c3)cc2)n1 | 12600 CFU | 1.1e+06 CFU
